From US20100022639A1, “Methods of Inducing Weight Loss” (The Johns Hopkins University School of Medicine Licensing …, priority 2000, published 2010)

Columns and labels:
[1] = system: feeding behavior; test: ICV TOFA pretreatment and feeding inhibition by IP C-75; type: in vivo, BALB/c mice; conditions: 2 μg TOFA ICV, 2 hours later 15 mg/kg C-75 IP, food intake over 2 hours
Method: This model predicts that feeding inhibition by FAS inhibitors should be attenuated by inhibitors of ACC's. To test this, mice were pretreated with the ACC inhibitor TOFA or vehicle by ICV injection and examined the ability of C-75, administered IP, to inhibit feeding. BALB/c mice were anesthetized with metofane and injected ICV with 2 μg of TOFA or DMSO vehicle. After 2 hours recovery, mice were injected IP with 15 mg C-75/kg or RPMI vehicle and monitored for total food intake over 2 hours. […] In addition, mice were anesthetized and injected ICV with 2 μl of RPMI or C-75 at 2.5 or 5 μg/μl and food intake monitored over 2 (shaded) and 4 (solid) hours. The efficacy of centrally administered TOFA argues for a central (CNS) mechanism of action. ICV administration of C-75 inhibited feeding by 82% (FIG. 5C), supporting the central target action of C-75. FIGS. 5(B) and (C) combine results from 3 experiments with N=3 for each (9 total).

[2] = system: acetyl CoA carboxylase (ACC); conditions: previous studies; cited from earlier work
[3] = system: feeding behavior; test: Reversal of C-75 feeding inhibition by intracerebroventricular NPY; type: in vivo, mice; conditions: 500 ng NPY ICV
Method: To confirm this finding, the capacity of NPY to reverse C-75-induced inhibition of feeding was examined. Mice were pretreated with 30_mg/kg of C-75 by I.P. injection. After 4 hours, mice were anaesthetized by inhaled metofane and given a direct intracerebroventricular injection of 500_ng NPY (2.5 μl total volume) or artificial CSF vehicle. Mice were placed into metabolic cages and observed for feeding behavior and monitored for food intake over 18 hours.

Compound | food intake in C-75-treated mice after TOFA pretreatment [1] | effect on fatty acid synthesis [2] | effect on feeding [2] | feeding behavior after ICV injection ([3]; mice pretreated with vehicle or C-75) | total food intake in C-75-treated mice ([3]; monitored over 18 hours)
CCCCCCCCCCCCCCOc1ccc(C(=O)O)o1 [TOFA] | largely restored food intake | inhibition of fatty acid synthesis | did not inhibit feeding | – | –
NPY: neuropeptide Y, anabolic neuropeptide produced in the hypothalamus that strongly stimulates feeding; injected ICV | – | – | – | rapidly led to voracious feeding | substantially elevate the total food intake
